Values belong to the compound of their own block, whether it stands above or below them. Active and inactive are the calls of the source.
Tests used:
[1] = target: T1, Zinc finger protein mex-5 (Caenorhabditis elegans, UniProt Q9XUB2); assay: MEX-5/TCR-2 RNA interaction inhibitors, dose response, biochemical, C. elegans, fluorescence polarization (AID 1960)
T1 sequence (Q9XUB2 whole entry): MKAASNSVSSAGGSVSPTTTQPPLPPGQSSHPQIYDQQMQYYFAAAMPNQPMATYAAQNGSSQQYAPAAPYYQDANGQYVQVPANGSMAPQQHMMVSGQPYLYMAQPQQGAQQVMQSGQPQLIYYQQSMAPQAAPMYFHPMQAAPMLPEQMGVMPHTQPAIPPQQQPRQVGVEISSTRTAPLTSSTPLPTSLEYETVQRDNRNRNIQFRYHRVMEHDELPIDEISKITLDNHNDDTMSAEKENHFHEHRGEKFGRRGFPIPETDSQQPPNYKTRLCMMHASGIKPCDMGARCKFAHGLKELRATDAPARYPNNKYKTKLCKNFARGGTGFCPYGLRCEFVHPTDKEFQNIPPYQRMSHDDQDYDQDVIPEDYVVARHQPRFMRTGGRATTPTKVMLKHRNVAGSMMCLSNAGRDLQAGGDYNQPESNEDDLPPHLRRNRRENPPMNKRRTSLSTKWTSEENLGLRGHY

[2] = target: Transitional endoplasmic reticulum ATPase (Homo sapiens, UniProt P55072); assay: p97 ATPase inhibitors, dose response, biochemical (AID 1534)
Chain of Transitional endoplasmic reticulum ATPase (Homo sapiens, UniProt P55072) (P55072 whole entry): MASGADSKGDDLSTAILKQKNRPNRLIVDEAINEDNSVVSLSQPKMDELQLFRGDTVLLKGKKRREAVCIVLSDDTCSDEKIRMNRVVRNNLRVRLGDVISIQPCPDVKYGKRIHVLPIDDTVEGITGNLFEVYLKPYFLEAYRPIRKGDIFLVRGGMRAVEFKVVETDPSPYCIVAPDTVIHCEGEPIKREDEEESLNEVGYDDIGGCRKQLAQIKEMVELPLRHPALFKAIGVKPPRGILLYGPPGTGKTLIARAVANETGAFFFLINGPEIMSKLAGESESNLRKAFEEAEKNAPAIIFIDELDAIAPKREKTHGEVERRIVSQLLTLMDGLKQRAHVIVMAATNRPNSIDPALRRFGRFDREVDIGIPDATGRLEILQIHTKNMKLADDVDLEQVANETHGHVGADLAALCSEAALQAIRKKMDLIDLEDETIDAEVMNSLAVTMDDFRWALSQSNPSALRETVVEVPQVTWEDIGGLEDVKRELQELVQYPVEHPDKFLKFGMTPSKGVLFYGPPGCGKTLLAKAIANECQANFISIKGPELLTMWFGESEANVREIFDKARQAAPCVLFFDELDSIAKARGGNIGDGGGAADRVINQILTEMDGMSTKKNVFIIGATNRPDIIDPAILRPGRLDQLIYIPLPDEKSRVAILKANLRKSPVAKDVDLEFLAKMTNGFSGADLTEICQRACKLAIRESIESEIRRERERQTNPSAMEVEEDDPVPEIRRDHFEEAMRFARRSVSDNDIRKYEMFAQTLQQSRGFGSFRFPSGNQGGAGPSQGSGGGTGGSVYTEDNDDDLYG

[3] = target: T2, Short transient receptor potential channel 4 (Mus musculus, UniProt Q9QUQ5); assay: mouse TRPC4 channel inhibitors, dose response, cell-based, HEK293 TRPC4/mu-opioid, Fluo-4 calcium (AID 434942); assay type: functional;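 note: potency of inhibitors blocking the TRPC4 calcium response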
T2 sequence (Q9QUQ5 whole entry): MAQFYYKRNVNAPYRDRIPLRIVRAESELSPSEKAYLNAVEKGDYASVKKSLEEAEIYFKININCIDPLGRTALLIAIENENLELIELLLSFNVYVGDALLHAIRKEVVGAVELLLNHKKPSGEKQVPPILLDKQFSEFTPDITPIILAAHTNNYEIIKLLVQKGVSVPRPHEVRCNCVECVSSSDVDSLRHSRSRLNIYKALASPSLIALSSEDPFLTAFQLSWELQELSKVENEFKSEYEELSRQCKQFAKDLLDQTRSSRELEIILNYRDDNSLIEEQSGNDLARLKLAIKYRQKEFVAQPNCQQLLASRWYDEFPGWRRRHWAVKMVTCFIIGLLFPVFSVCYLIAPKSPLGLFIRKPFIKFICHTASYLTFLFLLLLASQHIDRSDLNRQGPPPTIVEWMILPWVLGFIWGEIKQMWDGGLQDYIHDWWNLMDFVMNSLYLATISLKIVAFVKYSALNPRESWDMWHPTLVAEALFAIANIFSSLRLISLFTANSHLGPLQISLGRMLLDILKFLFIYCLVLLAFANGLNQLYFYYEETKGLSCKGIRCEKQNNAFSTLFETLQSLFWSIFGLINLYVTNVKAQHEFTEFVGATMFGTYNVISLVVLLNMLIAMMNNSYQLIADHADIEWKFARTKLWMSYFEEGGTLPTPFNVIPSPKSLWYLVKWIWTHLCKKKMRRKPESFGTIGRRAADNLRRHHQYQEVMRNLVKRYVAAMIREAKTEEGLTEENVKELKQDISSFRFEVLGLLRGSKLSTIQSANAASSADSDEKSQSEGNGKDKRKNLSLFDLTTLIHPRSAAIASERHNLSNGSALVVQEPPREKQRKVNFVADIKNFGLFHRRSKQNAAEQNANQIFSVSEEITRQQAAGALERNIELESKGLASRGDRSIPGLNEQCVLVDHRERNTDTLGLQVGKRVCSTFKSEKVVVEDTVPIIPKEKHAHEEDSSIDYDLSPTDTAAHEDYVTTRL

[4] = HeLa cell cytotoxicity, dose response, cytotoxicity control for MgcRacGAP inhibitor project (AID 624300); assay type: functional
[5] = target: Dual specificity tyrosine-phosphorylation-regulated kinase 1A (Rattus norvegicus, UniProt Q63470); assay type: biochemical, Homo sapiens
[6] = target: T3, RNA-binding protein pos-1 (Caenorhabditis elegans, UniProt G5EF15); assay: inhibitors of POS-1/mex-3 RNA binding, dose response, biochemical, fluorescence polarization (AID 1964);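 note: purified POS-1 fused to maltose binding protein made in E. coli; potency of compounds blocking POS-1 binding to fluorescent RNA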
T3 sequence (G5EF15 whole entry): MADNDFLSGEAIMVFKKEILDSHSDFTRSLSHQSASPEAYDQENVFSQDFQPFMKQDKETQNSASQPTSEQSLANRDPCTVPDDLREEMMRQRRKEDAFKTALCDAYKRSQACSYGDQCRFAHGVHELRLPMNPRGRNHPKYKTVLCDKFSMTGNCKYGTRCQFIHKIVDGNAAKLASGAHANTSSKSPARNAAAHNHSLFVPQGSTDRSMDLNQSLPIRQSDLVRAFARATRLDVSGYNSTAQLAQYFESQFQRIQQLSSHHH

[7] = target: T4, Rac GTPase-activating protein 1 (Homo sapiens, UniProt Q9H0H5); assay: MgcRacGAP GTPase-activating activity inhibitors, confirmation, biochemical, ADP Hunter fluorescence, primary and confirmatory (AID 624330); assay type: functional
T4 sequence (Q9H0H5 whole entry): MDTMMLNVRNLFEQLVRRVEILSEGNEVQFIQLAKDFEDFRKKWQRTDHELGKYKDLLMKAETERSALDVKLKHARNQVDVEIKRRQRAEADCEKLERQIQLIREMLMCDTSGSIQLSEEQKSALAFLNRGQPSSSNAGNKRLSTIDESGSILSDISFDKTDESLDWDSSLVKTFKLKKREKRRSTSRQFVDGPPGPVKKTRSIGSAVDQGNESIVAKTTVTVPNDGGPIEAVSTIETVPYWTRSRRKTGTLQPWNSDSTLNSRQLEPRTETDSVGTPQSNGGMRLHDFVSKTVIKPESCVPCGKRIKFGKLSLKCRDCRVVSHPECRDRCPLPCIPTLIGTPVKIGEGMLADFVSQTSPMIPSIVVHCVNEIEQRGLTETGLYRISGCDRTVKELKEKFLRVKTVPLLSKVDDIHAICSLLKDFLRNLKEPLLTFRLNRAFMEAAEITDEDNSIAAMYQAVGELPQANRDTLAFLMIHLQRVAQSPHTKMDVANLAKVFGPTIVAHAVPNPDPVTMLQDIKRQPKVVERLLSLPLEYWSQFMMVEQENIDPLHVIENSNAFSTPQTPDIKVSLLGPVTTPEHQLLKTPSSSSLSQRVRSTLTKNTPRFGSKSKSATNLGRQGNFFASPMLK

[8] = target: Transitional endoplasmic reticulum ATPase (Homo sapiens, UniProt P55072, C522A); assay: C522A mutant p97 ATPase inhibitors, dose response, counter-screen for p97 inhibitor project, biochemical, luminescence (AID 1544)
Chain of Transitional endoplasmic reticulum ATPase (Homo sapiens, UniProt P55072, C522A) (P55072 2-806 C522A limits assumed): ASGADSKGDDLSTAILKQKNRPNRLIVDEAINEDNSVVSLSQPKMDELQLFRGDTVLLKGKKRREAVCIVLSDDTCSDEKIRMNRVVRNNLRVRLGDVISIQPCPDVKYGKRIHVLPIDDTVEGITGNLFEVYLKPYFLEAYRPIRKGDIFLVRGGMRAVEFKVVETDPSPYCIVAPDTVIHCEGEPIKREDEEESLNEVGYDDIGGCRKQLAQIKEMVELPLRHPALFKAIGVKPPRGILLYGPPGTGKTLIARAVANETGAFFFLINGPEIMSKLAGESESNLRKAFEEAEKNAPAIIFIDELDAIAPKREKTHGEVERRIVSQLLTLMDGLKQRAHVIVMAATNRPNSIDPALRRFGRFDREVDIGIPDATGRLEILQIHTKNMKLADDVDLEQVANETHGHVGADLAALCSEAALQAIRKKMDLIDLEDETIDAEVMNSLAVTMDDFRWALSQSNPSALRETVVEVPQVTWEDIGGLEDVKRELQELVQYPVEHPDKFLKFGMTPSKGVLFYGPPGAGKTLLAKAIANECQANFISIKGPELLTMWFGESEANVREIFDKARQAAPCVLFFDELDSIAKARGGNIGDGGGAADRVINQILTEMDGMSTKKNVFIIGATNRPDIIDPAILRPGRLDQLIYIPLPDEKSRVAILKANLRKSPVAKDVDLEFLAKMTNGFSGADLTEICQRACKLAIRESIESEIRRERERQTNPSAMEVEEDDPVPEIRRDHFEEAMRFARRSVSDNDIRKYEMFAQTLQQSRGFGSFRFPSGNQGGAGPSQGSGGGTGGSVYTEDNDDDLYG

[9] = target: FAD-linked sulfhydryl oxidase ALR (Homo sapiens, UniProt P55789); assay: inhibitors of human ALR sulfhydryl oxidase, dose response, biochemical, H2O2 detection, luminescence, cherry-pick (AID 493248)
Chain of FAD-linked sulfhydryl oxidase ALR (P55789 whole entry): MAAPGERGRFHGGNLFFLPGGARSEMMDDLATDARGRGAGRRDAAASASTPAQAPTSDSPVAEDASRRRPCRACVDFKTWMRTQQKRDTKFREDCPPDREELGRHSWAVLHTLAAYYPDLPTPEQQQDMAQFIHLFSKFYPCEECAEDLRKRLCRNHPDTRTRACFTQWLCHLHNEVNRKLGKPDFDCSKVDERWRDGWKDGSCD

[10] = HEp-2 cell cytotoxicity, dose response, cytotoxicity control for RSV inhibitor project, HTS (AID 2410); assay type: functional; details: human respiratory syncytial virus
[11] = target: Neuropeptides B/W receptor type 1 (Homo sapiens, UniProt P48145); assay: Fluorescence-based dose response cell-based high throughput screening assay to identify antagonists of the G-protein coupled receptor 7 (GPR7). [Related pubchem assays: 1952 (Screening assay (GPR7 antagonists).), 1880 (Summary AID.)]; assay type: functional
Chain of Neuropeptides B/W receptor type 1 (P48145 whole entry): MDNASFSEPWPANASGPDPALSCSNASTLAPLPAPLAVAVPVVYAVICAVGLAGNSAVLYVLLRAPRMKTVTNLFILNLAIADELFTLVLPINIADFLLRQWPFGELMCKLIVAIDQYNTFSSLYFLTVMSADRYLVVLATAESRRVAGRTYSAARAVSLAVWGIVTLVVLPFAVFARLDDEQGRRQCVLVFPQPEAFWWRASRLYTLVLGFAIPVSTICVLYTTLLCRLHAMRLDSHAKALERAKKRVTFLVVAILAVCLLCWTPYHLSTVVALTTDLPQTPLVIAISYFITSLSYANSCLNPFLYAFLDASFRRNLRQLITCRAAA

[12] = target: Melanin-concentrating hormone receptor 1 (Homo sapiens, UniProt Q99705); assay: Fluorescence-based counterscreen for antagonists of the G-protein coupled receptor 7 (GPR7): cell-based high throughput dose response assay to identify antagonists of the melanin-concentrating hormone receptor 1 (MCHR1).; assay type: functional
Chain of Melanin-concentrating hormone receptor 1 (Q99705 whole entry): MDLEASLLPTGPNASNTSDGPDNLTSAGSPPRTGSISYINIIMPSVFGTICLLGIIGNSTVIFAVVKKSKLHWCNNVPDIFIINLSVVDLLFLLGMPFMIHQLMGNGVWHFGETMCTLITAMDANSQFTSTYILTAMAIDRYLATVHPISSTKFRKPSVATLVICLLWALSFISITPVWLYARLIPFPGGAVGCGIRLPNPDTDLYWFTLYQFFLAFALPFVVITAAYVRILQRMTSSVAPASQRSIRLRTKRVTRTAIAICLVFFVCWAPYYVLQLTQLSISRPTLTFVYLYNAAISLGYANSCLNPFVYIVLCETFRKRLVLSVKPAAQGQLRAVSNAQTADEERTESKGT

Estrogen receptor = target: T5, Estrogen receptor (Homo sapiens, UniProt P03372); assay: ERα–SRC-3 coactivator interaction inhibitors, confirmation, orthogonal assay, biochemical, ELISA, streptavidin-HRP readout (AID 1079)
T5 sequence (P03372 whole entry): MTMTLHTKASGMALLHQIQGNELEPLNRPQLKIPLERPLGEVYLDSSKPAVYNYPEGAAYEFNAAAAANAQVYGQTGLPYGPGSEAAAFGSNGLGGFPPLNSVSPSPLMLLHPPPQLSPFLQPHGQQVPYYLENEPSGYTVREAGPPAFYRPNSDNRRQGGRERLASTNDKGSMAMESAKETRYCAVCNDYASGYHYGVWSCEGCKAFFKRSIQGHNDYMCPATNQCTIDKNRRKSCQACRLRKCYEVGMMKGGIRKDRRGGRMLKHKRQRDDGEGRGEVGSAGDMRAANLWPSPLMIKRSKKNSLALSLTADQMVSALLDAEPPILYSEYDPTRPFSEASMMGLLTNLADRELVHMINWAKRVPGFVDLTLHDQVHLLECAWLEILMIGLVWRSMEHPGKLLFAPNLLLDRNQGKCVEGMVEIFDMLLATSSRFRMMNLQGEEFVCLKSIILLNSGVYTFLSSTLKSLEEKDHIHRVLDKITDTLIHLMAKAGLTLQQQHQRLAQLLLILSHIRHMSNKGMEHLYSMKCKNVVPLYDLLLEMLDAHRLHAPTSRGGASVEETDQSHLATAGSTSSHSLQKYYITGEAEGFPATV

EC50 [1]: 9.7 µM (active)
IC50 [2]: 24.2 µM (not active)
EC50 [3]: 1.33 µM (active)
AC50 [5]: 1.94 µM (active)
EC50 [6]: 17.1 µM (active)
IC50 [7]: 44.5 µM (active)
IC50 [8]: > 50 µM (not active)
AC50 [9]: 3.12 µM (active)
Structure (SMILES): NS(=O)(=O)c1ccc(Nc2nc(-c3ccc(O)cc3O)cs2)cc1
CC50 [4]: 100 µM (active)

IC50 [11]: > 43.8 µM (not active)
IC50 [12]: 26.2 µM (not active)
Structure (SMILES): Cc1cc(C[n+]2cc(Br)ccc2N)c2ncccc2c1
CC50 [10]: 46.4 µM (active)

IC50 (Estrogen receptor): 80 nM (not active)
Structure (SMILES): CC(C)(C)OC(=O)[C@@H](CCC(=O)N1CCN(c2ccc(C#N)cc2)CC1)n1c(=S)[nH]c2ccccc2c1=O
